Results published in article PMC8883573, “New Insights Into the Function of Flavohemoglobin in Mycobacterium tuberculosis: Role as a NADPH-Dependent Disulfide Reductase and D-Lactate-Dependent Mycothione Reductase” (Frontiers in Cellular and Infection Microbiology, 2022).

Tests used:
[1] = system: O=C(O)c1cc(SSc2ccc([N+](=O)[O-])c(C(=O)O)c2)ccc1[N+](=O)[O-]; assay: purified protein; format: biochemical, Mycolicibacterium smegmatis; details: pH 7.0
[2] = target: trxB (Mycobacterium tuberculosis, UniProt P9WHH1); assay: DTNB reduction, absorbance at […] nm; format: biochemical; details: 5 mM DTNB, 250 µM NADPH, 100 mM potassium phosphate pH 7.0, 2 mM EDTA, 25 °C
Chain of trxB (P9WHH1 2-335): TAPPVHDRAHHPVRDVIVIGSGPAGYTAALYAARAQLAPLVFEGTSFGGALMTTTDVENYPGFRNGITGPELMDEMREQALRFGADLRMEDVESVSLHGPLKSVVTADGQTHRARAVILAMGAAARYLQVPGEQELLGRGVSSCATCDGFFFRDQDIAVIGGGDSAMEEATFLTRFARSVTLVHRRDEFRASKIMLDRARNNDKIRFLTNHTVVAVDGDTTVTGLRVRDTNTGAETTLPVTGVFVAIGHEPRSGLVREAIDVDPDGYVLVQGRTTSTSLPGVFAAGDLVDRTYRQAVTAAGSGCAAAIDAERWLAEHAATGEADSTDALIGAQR

MsFHbII (Mycolicibacterium smegmatis MC2 155)
Km [1]: 93.7 ± 7.6 µM

NC(=O)C1=CN([C@@H]2O[C@H](COP(=O)(O)OP(=O)(O)OC[C@H]3O[C@@H](n4cnc5c(N)ncnc54)[C@H](OP(=O)(O)O)[C@@H]3O)[C@@H](O)[C@H]2O)C=CC1 [NADPH]
DTNB reduction, absorbance at 412 nm ([2]; electron donor for DTNB reduction): NADPH-dependent reduction of DTNB by MtbFHb, MsFHbII, and trxB

O=C(O)c1cc(SSc2ccc([N+](=O)[O-])c(C(=O)O)c2)ccc1[N+](=O)[O-] [DTNB, 5,5’-dithiobis-(2-nitrobenzoic acid)]
DTNB reduction, absorbance at 412 nm [2]: NADPH-dependent reduction of DTNB by MtbFHb, MsFHbII, and trxB
